One block for each molecule: values may come before it.
Legend:
[1] = system: RBCs from a patient with PNH; assay: Modified Ham's test with flow cytometry for CD59 and C3d; format: cell-based, human
Method: A modified Ham's test was performed to assess the ability of compstatin analogs to protect PNH RBCs from complement-mediated lysis. […] Exposure to heat inactivated human serum was used as a control representing no significant complement-mediated lysis as complement is inactivated by heat. Exposure to acidified human serum and magnesium (Mg^2+) in the absence of complement inhibitors (pane labeled Mg^2+) was used as a control representing maximum lysis.
Following incubation, cells were stained with antibodies to CD59 and C3d. CD59 level permitted the classification of the PNH RBCs as Type I, Type II, or Type III. Staining for C3d, a product of C3 activation and cleavage was used as a marker of C3 and C3 activation product deposition (loading). Flow cytometric analysis was performed to assess CD59 and C3d on RBC surfaces and to quantify the percentages of Type I, Type II, and Type III cells present in various samples.

[2] = Phase 1 single and multiple ascending dose trial of inhaled CA28; format: in vivo, human; conditions: for adverse event: one subject
Method: In the single ascending dose part of the trial, 16 subjects were enrolled in four cohorts of four subjects each.
Four subjects were enrolled in the first cohort of the multiple ascending dose part of the trial. These subjects were to receive 14 consecutive days of treatment with a 60 mg/day dose of the drug. […] The trial was paused and subsequently resumed, with subjects receiving 30 mg/day. […] The trial was then terminated.

[3] = system: inflammatory cytokines in the lungs; assay: Ascaris suum challenge model; format: in vivo, cynomolgus monkeys; conditions: nebulized 20 mg/day or 15 mg/kg/d for 14 days; during treatment and 28 days after cessation
[4] = biological target: T1, complement component C3 (human) (human, UniProt P01024 23-1663); assay: cell-based or functional assay
[5] = biological target: T1, complement component C3 (human); assay: cell-based or functional assay; remark: listed apart in the source
[6] = biological target: T1, complement component C3 (human); assay: cell-based or functional assay; remark: listed apart in the source
[7] = biological target: T1, complement component C3 (human); assay: cell-based or functional assay; remark: listed apart in the source
[8] = biological target: T1, complement component C3 (human); assay: cell-based or functional assay; remark: listed apart in the source

IC50, classical complement inhibition assay (C3b deposition ELISA, human plasma) [4]: 1260 nM
B1: CA28-AEEAc-Lys-(PEG30k) (peptide)
peptide: ICVWQDWGAHRCTK
modifications: not fully specified; N-terminal acetyl; 1-methyl-tryptophan at position 4; disulfide bond Cys2-Cys12; AEEAc (8-amino-3,6-dioxaoctanoyl) spacer between Thr13 and Lys; linear monofunctional 30 kD PEG (NOF SUNBRIGHT ME-300GS) on the Lys side chain; C-terminal amide

IC50 (read off the curve): % inhibition of classical pathway complement activation (C3b deposition ELISA, human plasma) [7]: ~700 nM
B5: CA28-AEEAc-Lys(mPEG40K-hexanoyl) (peptide)
peptide: ICVWQDWGAHRCTK
modifications: N-terminal acetyl; 1-methyl-tryptophan at position 4; disulfide bond Cys2-Cys12; AEEAc spacer between Thr13 and Lys; linear monomethoxy 40 kD PEG (NOF SUNBRIGHT ME-400HS, hexanoyl linkage) on the Lys side chain; C-terminal amide

IC50 (read off the curve): % inhibition of classical pathway complement activation (C3b deposition ELISA, human plasma) [7]: ~700 nM
B6: CA28-AEEAc-Lys(mPEG40K-succinyl) (peptide)
peptide: ICVWQDWGAHRCTK
modifications: N-terminal acetyl; 1-methyl-tryptophan at position 4; disulfide bond Cys2-Cys12; AEEAc spacer between Thr13 and Lys; linear monomethoxy 40 kD PEG (NOF SUNBRIGHT ME-400CS, succinyl linkage) on the Lys side chain; C-terminal amide

IC50 (read off the curve): % inhibition of classical pathway complement activation (C3b deposition ELISA, human plasma) [7]: ~700 nM
IC50, classical complement inhibition assay (C3b deposition ELISA, human plasma) [4]: 1290 nM
B8: CA28-AEEAc-Lys-(PEG40k) (peptide)
peptide: ICVWQDWGAHRCTK
modifications: N-terminal acetyl; 1-methyl-tryptophan at position 4; disulfide bond Cys2-Cys12; AEEAc spacer between Thr13 and Lys; linear monomethoxy 40 kD PEG (NOF SUNBRIGHT ME-400GS, glutaryl linkage) on the Lys side chain; C-terminal amide

The remaining lines, values behind:

Molecule: CC[C@H](C)[C@H](NC(C)=O)C(=O)N[C@H]1CSSC[C@@H](C(=O)N[C@H](C(N)=O)[C@@H](C)O)NC(=O)[C@H](CCCNC(=N)N)NC(=O)[C@H](Cc2cnc[nH]2)NC(=O)[C@H](C)NC(=O)CNC(=O)[C@H](Cc2c[nH]c3ccccc23)NC(=O)[C@H](CC(=O)O)NC(=O)[C@H](CCC(N)=O)NC(=O)[C@H](Cc2cn(C)c3ccccc23)NC(=O)[C@H](C(C)C)NC1=O [CA28]
protection from complement-mediated lysis ([1]; 100 ug/ml or more): complete protection from complement-mediated lysis
% C3 (Type I) ([1]; 1 micrograms/ml): 1.7%
% C3 (Type III) ([1]; 1 micrograms/ml): 1.2%
% C3 (Type III) ([1]; 4 micrograms/ml): 0.83%
% C3 (Type III) ([1]; 8 micrograms/ml): 0.7%
Type II % ([1]; 8 micrograms/ml): 66%
% C3 (Type III) ([1]; 15 micrograms/ml): 0.98%
Type I % ([1]; 15 micrograms/ml): 15%
% C3 (Type II) ([1]; 25 micrograms/ml): 9.3%
% C3 (Type III) ([1]; 25 micrograms/ml): 0.75%
Type I % ([1]; 25 micrograms/ml): 14.96%
% C3 (Type I) ([1]; 100 micrograms/ml): 0.08%
% C3 (Type II) ([1]; 100 micrograms/ml): 0.92%
% C3 (Type III) ([1]; 100 micrograms/ml): 0.1%
Type III % ([1]; 100 micrograms/ml): 37.96%
C3 loading on PNH red cells ([1]; 100 micrograms/ml compound or higher): virtually no C3 loading
% C3 (Type I) ([1]; 500 micrograms/ml): 0.14%
% C3 (Type II) ([1]; 500 micrograms/ml): 0.63%
% C3 (Type III) ([1]; 500 micrograms/ml): 0.09%
adverse event ([2]; 30 mg/day inhaled, after 10 days): signs and symptoms consistent with a potential bacterial infection
adverse event ([2]; 60 mg/day inhaled, after nine days): signs and symptoms consistent with a potential bacterial infection
safety and tolerability ([2]; single inhaled dose 20, 60, 150 or 350 mg): well tolerated
levels of inflammatory cytokines in broncheoalveolar lavage fluid after allergen challenge [3]: had a pharmacological effect

B2: (CA28-AEEAc)8-PEG40k (peptide)
peptide: ICVWQDWGAHRCTK
modifications: N-terminal acetyl; 1-methyl-tryptophan at position 4; disulfide bond Cys2-Cys12; AEEAc spacer between Thr13 and Lys; Lys side chain coupled to one arm of an eight-arm 40 kD PEG (NOF SUNBRIGHT HGEO-400GS); C-terminal amide
IC50, classical complement inhibition assay, as a function of CA28 moiety concentration [4]: 1930 nM
IC50 on a molar basis of the compound, classical complement inhibition assay [5]: ~260 nM

B3: CA28-2TS-BF (peptide)
peptide: ICVWQDWGAHRCTK
modifications: not fully specified; N-terminal acetyl; 1-methyl-tryptophan at position 4; disulfide bond Cys2-Cys12; AEEAc spacer between Thr13 and Lys; Lys side chain coupled by a carbamate to one end of a bifunctional linear 40 kD PEG of the TS type; C-terminal amide
IC50 (read off the curve): % inhibition of alternative pathway complement activation (LPS-coated plate, C3b deposition ELISA, human plasma) [B] [6]: ~400 nM

B4: CA28-AEEAc-Lys(mPEG40K-carbonyl) (peptide)
peptide: ICVWQDWGAHRCTK
modifications: N-terminal acetyl; 1-methyl-tryptophan at position 4; disulfide bond Cys2-Cys12; AEEAc spacer between Thr13 and Lys; linear monomethoxy 40 kD PEG (NOF SUNBRIGHT ME-400TS, carbonyl linkage) on the Lys side chain; C-terminal amide
IC50 (read off the curve): % inhibition of classical pathway complement activation (C3b deposition ELISA, human plasma) [7]: ~700 nM

B7: CA28-2GS-BF (peptide)
peptide: ICVWQDWGAHRCTK
modifications: not fully specified; N-terminal acetyl; 1-methyl-tryptophan at position 4; disulfide bond Cys2-Cys12; AEEAc spacer between Thr13 and Lys; Lys side chain coupled to one end of a bifunctional linear 40 kD PEG of the GS type (glutaryl, amide plus ester linkage); C-terminal amide
Q1 (Type III cells with C3d deposition) % Parent, modified Ham's test, at 50 ug/ml [8]: 0.01%
Q2 (Type I and II cells with C3d deposition) % Parent, modified Ham's test, at 50 ug/ml [8]: 0.01%
Q3 (Type III cells without significant C3d deposition) % Parent, modified Ham's test, at 50 ug/ml [8]: 61.5%
Q4 (Type I and II cells without significant C3d deposition) % Parent, modified Ham's test, at 50 ug/ml [8]: 38.5%

Source: patent US11040107B2, “Dosing regimens and related compositions and methods” (Apellis Pharmaceuticals, Inc., priority 2017, dated 2021)
